Measured values reported in patent US6605424B1, “Method of detecting inhibitors of agonist-specific desensitization” (Duke University, priority 1989, dated 2003).
No end group written: not given here.

Columns and labels:
βAR kinase [1] = target: T1, βAR kinase (Bos taurus, UniProt P21146); experiment: Phosphorylation of purified reconstituted β2ARs by purified βAR kinase (Example II); format: biochemical, bovine; conditions: 100 μM
T1 construct: βAR kinase was purified from bovine cerebral cortex; from tissue; host or cells: bovine cerebral cortex
T1 sequence (P21146 1-689): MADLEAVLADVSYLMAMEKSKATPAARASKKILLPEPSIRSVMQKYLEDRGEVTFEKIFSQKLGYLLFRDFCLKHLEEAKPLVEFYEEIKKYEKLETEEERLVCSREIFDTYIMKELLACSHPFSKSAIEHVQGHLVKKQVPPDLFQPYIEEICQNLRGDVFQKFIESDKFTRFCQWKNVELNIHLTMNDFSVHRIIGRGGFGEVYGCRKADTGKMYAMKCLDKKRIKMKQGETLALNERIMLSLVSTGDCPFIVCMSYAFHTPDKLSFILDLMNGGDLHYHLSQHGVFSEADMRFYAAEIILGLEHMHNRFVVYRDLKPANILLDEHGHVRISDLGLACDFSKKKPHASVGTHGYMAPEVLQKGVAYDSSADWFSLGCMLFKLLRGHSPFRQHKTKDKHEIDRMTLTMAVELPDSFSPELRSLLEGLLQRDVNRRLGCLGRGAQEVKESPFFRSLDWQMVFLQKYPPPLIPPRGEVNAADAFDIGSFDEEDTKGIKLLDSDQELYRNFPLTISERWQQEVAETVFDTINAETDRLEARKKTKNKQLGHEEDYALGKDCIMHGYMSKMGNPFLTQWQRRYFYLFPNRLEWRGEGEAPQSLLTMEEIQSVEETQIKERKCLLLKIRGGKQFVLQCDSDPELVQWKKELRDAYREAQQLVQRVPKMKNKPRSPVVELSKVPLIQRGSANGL
Protocol: FIG. 7. […] (Inset) Relevant section of a representative autoradiogram. Data are means±SEM of three independent experiments. […] Desensitization was measured as the percent loss of stimulation by 10 μM (−)-isoproterenol of adenylyl cyclase activity in membranes. […] Data are means±SEM of four independent experiments.
Purified β2ARs were inserted into phosphatidylcholine vesicles by chromatography on Extracti-gel, followed by polyethylene glycol treatment and centrifugation at 280,000×g for 90 min (Cerione et al (1984) Biochemistry 23:4519-4525). Phosphorylation of the reconstituted receptors by purified βAR kinase was done in the presence of 50 μM (−)-isoproterenol as described (Benovic et al (1987) J. Biol. Chem. 262:9026-9032). Subsequently, the samples were subjected to sodium dodecyl sulfate polyacrylamide gel electrophoresis on 10% gels (Laemmli (1970) Nature 227:680-685). The phosphorylated β2ARs were visualized by autoradiography, and the corresponding bands were cut out and their content of ^32P quantified.

[2] = tested on: β2ARs in permeabilized A431 cells; experiment: Desensitization of β2ARs in permeabilized A431 cells; format: cell-based, human; conditions: 100 μM
Protocol: Permeabilization of cells was accomplished as follows. Human epidermoid carcinoma A431 cells were grown to about 95% confluence in Dulbecco's modified Eagle's medium supplemented with 10% fetal calf serum. Cells were harvested with collagenase, washed three times with calcium-free phosphate-buffered saline (PBS), then washed twice in 150 mM potassium glutamate/10 mM Hepes/5 mM EGTA/7 mM MgCl2, pH 7.1 (KG buffer), and finally resuspended in KG buffer supplemented with 5 mM glucose and 2 mM ATP (KG-A buffer) at a density of 4×10^7 cells per ml.
At 4×10^7 cells per ml, about 0.015% digitonin was necessary to achieve permeabilization of >95% cells as assessed by staining with trypan blue. In all experiments, digitonin was added stepwise until >95% of the cells were trypan blue positive.

βAR kinase [3] = target: T1, βAR kinase; experiment: Phosphorylation of β2AR and synthetic β2AR peptides by βAR kinase (substrate kinetics); format: biochemical, bovine; conditions: for phosphorylation by βAR kinase: FIG. 10; for Ratio (Vmax/Km relative to β2AR + ISO): substrate of βAR kinase
Protocol: FIG. 11. Kinetic parameters of the βAR kinase for β2AR. Reconstituted β2AR (0.05-0.3 μM) was incubated for 15 min at 30° C. with purified βAR kinase (˜30 ng) in the presence (◯) or absence (●) of 50 μM (−)-isoproterenol. Reactions were stopped by the addition of SDS sample buffer before electrophoresis on a 10% SDS polyacrylamide gel. ^32P-labeled receptor was determined by cutting and counting the dried gel following […] autoradiography.
FIG. 12. Kinetic parameters of the βAR kinase for synthetic peptides CT-2 and CT-3. The synthetic β2AR peptides CT-2 (0.6-3.3 mM;Δ) and CT-3 (0.6-4.3 mM; ▴) were incubated for 60 min at 30° C. with purified βAR kinase (˜30 ng). Reactions were stopped by the addition of SDS urea sample buffer before electrophoresis on a 9% SDS urea polyacrylamide gel. ^32P-labeled peptide was determined by cutting and counting the gel following autoradiography.
(§1) βAR kinase was purified from bovine cerebral cortex by modification of a previously described procedure (Benovic et al (1987) J. Biol. Chem. 262:9026-9032). Briefly, 250 g of bovine cortex was homogenized and the resulting high speed supernatant fraction was precipitated with 13-26% ammonium sulfate. This material was initially chromatographed on an Ultrogel AcA34 column equilibrated with 5 mM Tris-HCl, pH 7.5, 2 mM EDTA, 5 μg/ml leupeptin, 5 μg/ml pepstatin, 15 μg/ml benzamidine, 0.2 mM phenylmethyl sulfonyl fluoride (buffer A). The peak activity was diluted 1:1 with buffer A containing 0.02% triton X-100 and applied to a DEAE Sephacel column. Elution was accomplished with a 0-80 mM NaCl gradient in buffer A containing triton X-100. The peak activity was then applied directly to a CM Fractogel column and eluted with a 0-100 mM NaCl gradient in buffer A containing triton X-100. The purified kinase was stored at 4° C.
Phosphorylation of βAR was accomplished by incubating reconstituted βAR (0.5-5 pmol/incubation) with βAR kinase (10-50 ng) in a buffer containing 20 mM Tris-HCl, pH 7.5, 2 mM EDTA, 10 mM NaCl, 5 mM MgCl2, 5 mM sodium phosphate, 0.5 mM ascorbic acid, 0.15 mM [γ-^32P]ATP (1-5 cpm/fmol) at 30° C. for the indicated time (see Figures indicated below and corresponding description). Some incubations also contained 50 μM (−)-isoproterenol. Incubations were stopped by the addition of 50 μl of SDS sample buffer followed by electrophoresis on 10% homogeneous polyacrylamide gels. Phosphorylated βAR was visualized by autoradiography and the corresponding bands were excised and counted to determine the pmol of phosphate incorporated.
Synthetic βAR peptides were phosphorylated as follows by βAR kinase. […] Following autoradiography the phosphorylated peptides were excised and counted to determine the amount of phosphate incorporated. […]

βAR kinase [4] = target: T1, βAR kinase; experiment: Inhibition of β2AR phosphorylation by βAR kinase by synthetic peptides (Example III); format: biochemical, bovine
Protocol: FIG. 13. Inhibition of β2AR phosphorylation by synthetic peptides. Reconstituted β2AR (˜0.4 pmol) was incubated for 30 min at 30° with purified βAR kinase (˜30 ng) in the presence of 50 mM Tris-HCl, pH 7.5, 2 mM EDTA, 10 mM NaCl, 5 mM MgCl2, 5 mM sodium phosphate, 50 μM (−)-isoproterenol and 0.10 mM [γ^32P]ATP (2.0 cpm/fmol). Synthetic β2AR peptides were varied from 0 to 1 mM and included CI (Δ), CII (▴), CIII-2 (◯) and CT-1 (●). Reactions were stopped by the addition of […]. ^32P-labeled receptor was determined by cutting and counting the dried gel following autoradiography.
The β2-adrenergic receptor from hamster lung was purified to apparent homogeneity by sequential affinity and high performance liquid chromatography as described (Benovic et al (1984) Biochemistry 23:4510-4518). The purified receptor was reinserted into phosphatidylcholine vesicles as previously described (Cerione et al (1983) Nature 306:562-566). The protein-lipid pellets were resuspended in 20 mM Tris-HCl, pH 7.2, 2 mM EDTA and used as a substrate for the βAR kinase.
as §1
The inhibition of substrate phosphorylation by βAR kinase in the presence of synthetic peptides was assayed as follows. Reconstituted βAR (0.2-1 pmol/inclubation) was incubated with βAR kinase (10-30 ng) in a buffer containing 50 mM Tris-HCl, pH 7.5, 2 mM EDTA, 10 mM NaCl, 5 mM MgCl2, 5 mM sodium phosphate, 50 μM (−)-isoproterenol, 0.10 mM [γ-^32P]ATP (1-3 cpm/fmol) at 30° C. for 30 min. Synthetic β2AR peptides were varied in concentration from 0 to 2 mM. Reactions were quenched by the addition of SDS sample buffer followed by gel electrophoresis. In some experiments urea treated rod outer segments (Wilden et al (1982) Biochemistry 21:3014-3022; Shichi et al (1978) J. Biol. Chem. 253:7040-7046) were used as the substrate for βAR kinase. To further define the specificity of the peptide inhibition, phosvitin, casein (see Example I) and the synthetic peptides CT-2 and CT-3 were used as substrates for βAR kinase.
SDS polyacrylamide gel electrophoresis was performed by the method of Laemmli (Nature (1970) 227:[…]) using 10 or 15% homogeneous slab gels. SDS sample buffer contained 8% SDS, 10% glycerol, 5% β-mercaptoethanol, 25 mM Tris-HCl, pH 6.5 and 0.003% bromphenol blue. SDS urea polyacrylamide gel electrophoresis was carried out using 6.5 M urea, 0.1% SDS, 100 mM H3PO4, pH 6.8 with Tris-HCl and 9% acrylamide (Swank et al (1971) Anal. Biochem. 39:462). SDS urea sample buffer contained 1% SDS, 8M urea, 10 mM H3PO4, pH 6.8 with Tris-HCl, 1% β-mercaptoethanol and 0.003% bromphenol blue.

Sequence | inhibition at 100 µM (βAR kinase [1]) [%] | Inhibition of Desensitization, % [2] [%] | phosphorylation by βAR kinase (βAR kinase [3]) | Ratio (Vmax/Km relative to β2AR + ISO) (βAR kinase [3]) | IC50 (βAR kinase [4]; hamster β2AR peptides, ND = no significant inhibition at ˜500 μM, read-out: IC50 (μM), inhibition of β2AR phosphorylation by βAR kinase) [µM] | inhibition of β2AR phosphorylation (βAR kinase [4]; tested at ˜0.5 mM)
AKFERLQTVTN [β2AR-(59-69)] | 0 | 3 ± 12 | – | – | – | –
GYSSNSNGKTDYMGEASGCQLGQEKESER [CT-2 (353-381)] | – | – | are phosphorylated by βAR kinase | 2.3 × 10^−6 | 142 | –
QGTVPSLSLDSQGRNCSTNDSPL [CT-3 (396-418)] | – | – | are phosphorylated by βAR kinase | 1.3 × 10^−6 | – | do not inhibit
